Assay results: patent US9012443B2 (Amgen Inc., priority 2011, dated 2015)
“And” between values parts separate entries of the source, which are not always exact repeats. Equal entries are not always repeated.

Columns and labels:
[1] = biological target: T1, Nav 1.7 (Homo sapiens (Human), UniProt Q15858); experiment: Nav 1.7 in vitro PX assay (PatchXpress whole cell voltage clamp); type: cell-based; conditions: 293 cells, human Nav1.7, partially inactivated state; read-out: Nav1.7 PX IC50 IP
Summary of the method: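 HEK293 cells stably expressing human Nav1.7, whole-cell voltage clamp on PatchXpress, held at potential giving 20–50% inactivation; current elicited by 20 msec pulse to −10 mV.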

[2] = biological target: T1, Nav 1.7; experiment: Nav 1.7 IWQ in vitro assay (IonWorks Quattro population patch-clamp); type: cell-based; conditions: for IC50: 293 cells stably transfected with Nav 1.7
Summary of the method: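 HEK293 cells stably expressing Nav 1.7, recorded by automated population patch-clamp with a train of depolarizations producing increasing inactivation. Single compound concentration added during 3–8 min unclamped period, then same protocol repeated. Leak-corrected current at 26th pulse to −20 mV gave percent block (duplicate); IC50 fitted from concentration–block curves.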

[3] = second part of table, read-out: Nav1.7 IWQ IC50 IP
[4] = first part of table, read-out: Nav 1.7 IWQ IC50

T1 sequence (Q15858 whole entry): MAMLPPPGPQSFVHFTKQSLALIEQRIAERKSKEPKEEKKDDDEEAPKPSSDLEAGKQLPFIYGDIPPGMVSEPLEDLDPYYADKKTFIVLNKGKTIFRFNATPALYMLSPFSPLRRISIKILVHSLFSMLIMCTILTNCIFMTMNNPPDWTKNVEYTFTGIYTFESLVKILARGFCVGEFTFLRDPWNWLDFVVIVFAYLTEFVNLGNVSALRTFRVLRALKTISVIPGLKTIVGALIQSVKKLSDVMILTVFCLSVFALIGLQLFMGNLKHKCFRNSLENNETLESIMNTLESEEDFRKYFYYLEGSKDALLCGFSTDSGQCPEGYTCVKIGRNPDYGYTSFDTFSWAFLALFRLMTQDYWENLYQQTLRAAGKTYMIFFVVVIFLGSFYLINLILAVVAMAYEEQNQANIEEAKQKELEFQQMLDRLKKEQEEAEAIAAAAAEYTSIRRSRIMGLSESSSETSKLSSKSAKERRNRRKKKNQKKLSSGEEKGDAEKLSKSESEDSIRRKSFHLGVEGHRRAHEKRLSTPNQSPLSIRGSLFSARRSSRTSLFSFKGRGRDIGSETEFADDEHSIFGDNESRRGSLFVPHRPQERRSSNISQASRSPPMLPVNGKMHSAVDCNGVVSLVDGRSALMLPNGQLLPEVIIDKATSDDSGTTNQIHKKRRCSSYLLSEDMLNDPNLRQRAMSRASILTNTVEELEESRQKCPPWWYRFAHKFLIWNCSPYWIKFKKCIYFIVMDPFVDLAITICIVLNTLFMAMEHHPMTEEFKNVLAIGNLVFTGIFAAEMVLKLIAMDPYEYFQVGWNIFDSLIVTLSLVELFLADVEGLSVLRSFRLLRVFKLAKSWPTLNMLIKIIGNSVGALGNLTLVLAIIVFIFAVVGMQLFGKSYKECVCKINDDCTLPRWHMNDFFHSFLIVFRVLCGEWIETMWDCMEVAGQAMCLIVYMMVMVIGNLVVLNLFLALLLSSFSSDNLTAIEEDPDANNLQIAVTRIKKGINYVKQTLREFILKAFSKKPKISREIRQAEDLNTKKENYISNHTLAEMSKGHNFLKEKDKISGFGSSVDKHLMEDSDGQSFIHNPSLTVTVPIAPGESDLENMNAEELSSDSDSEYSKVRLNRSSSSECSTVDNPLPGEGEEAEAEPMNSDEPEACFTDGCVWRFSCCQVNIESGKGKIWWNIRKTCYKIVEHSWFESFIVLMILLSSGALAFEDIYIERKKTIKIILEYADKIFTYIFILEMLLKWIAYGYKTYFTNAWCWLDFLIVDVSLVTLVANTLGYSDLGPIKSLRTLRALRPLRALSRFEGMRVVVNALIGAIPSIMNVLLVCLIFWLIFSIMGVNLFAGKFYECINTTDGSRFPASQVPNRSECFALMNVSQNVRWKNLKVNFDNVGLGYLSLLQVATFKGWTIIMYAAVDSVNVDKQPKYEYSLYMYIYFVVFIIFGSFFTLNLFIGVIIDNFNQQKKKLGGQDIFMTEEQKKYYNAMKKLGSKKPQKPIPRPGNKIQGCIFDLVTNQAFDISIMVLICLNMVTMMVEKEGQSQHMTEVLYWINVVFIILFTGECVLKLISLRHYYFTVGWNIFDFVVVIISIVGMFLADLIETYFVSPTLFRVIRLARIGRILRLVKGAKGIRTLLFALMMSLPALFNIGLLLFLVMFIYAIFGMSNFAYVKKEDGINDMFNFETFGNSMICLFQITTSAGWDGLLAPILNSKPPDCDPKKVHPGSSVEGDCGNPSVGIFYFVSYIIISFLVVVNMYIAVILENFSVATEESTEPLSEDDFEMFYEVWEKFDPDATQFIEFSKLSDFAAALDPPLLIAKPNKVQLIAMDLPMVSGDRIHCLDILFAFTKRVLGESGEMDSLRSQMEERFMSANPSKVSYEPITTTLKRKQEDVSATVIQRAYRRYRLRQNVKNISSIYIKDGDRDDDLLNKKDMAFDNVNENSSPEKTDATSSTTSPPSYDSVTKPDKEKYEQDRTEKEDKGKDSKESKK

| Compound | IC50 [2, 3] | Nav1.7 Single Point Data IWQ (at […]) (%) [2] | also measured |
| --- | --- | --- | --- |
| O=S(=O)(Nc1ccncn1)c1ccc2c(OCc3nccn3Cc3ccc(Cl)cc3)nccc2c1 [Example 133, 1-((1-(4-CHLOROBENZYL)-1H-IMIDAZOL-2-YL)METHOXY)-N-(PYRIMIDIN-4-YL)ISOQUINOLINE-6-SULFONAMIDE] | 1830 nM |  | IC50 [1]: 34100 nM |
| O=S(=O)(Nc1ncns1)c1ccc2c(N3CCC[C@H]3c3ccncc3)cccc2c1 (single isomer, unassigned) [Example 89] | 290 nM |  | IC50 [1]: 2330 nM |
| CN1CCC=C(c2cc(C(F)(F)F)ccc2-c2cccc3cc(S(=O)(=O)Nc4ccncn4)ccc23)C1 [Example 122] | 40 nM |  | IC50 [1]: 492 nM |
| COc1cc(C(F)(F)F)ccc1-c1c(O)ncc2cc(S(=O)(=O)Nc3nccs3)ccc12 [Example 545, 3-HYDROXY-4-(2-METHOXY-4-(TRIFLUOROMETHYL)PHENYL)-N-(THIAZOL-2-YL)ISOQUINOLINE-7-SULFONAMIDE] |  | 23.7% |  |
| O=S(=O)(Nc1ccncn1)c1ccc2c(-c3ccc(C(F)(F)F)cc3-c3ccncc3)cccc2c1 [Example 75] |  |  | IC50 [2, 4]: 100 nM |
| O=S(=O)(Nc1nccs1)c1ccc2c(-c3ccc(C(F)(F)F)cc3C3=CCNCC3)cccc2c1 [Example 77] |  |  | IC50 [2, 4]: 70 nM |
| COc1cnccc1NS(=O)(=O)c1ccc2c(-c3ccc(C(F)(F)F)cc3Cl)nccc2c1 [Example 52, 1-(2-CHLORO-4-(TRIFLUOROMETHYL)PHENYL)-N-(3-METHOXYPYRIDIN-4-YL)ISOQUINOLINE-6-SULFONAMIDE] |  |  | inhibition at […] ([2]; read-out: Nav 1.7 IWQ percent inhibition at […], read-out: Nav 1.7 IWQ percent inhibition at 4.9 μM): 16% |
| O=S(=O)(Nc1nccs1)c1ccc2c(-c3ccc(C(F)(F)F)cc3-c3ccncc3)nccc2c1 [Example 71, 1-(2-(PYRIDIN-4-YL)-4-(TRIFLUOROMETHYL)PHENYL)-N-(THIAZOL-2-YL)ISOQUINOLINE-6-SULFONAMIDE] |  |  | IC50 [2, 4]: 20 nM |
| O=S(=O)(Nc1nccs1)c1ccc2c(N3CCCCC3c3ccccc3)ncnc2c1 (stereo not shown) [Example 538, 4-(2-PHENYLPIPERIDIN-1-YL)-N-(THIAZOL-2-YL)QUINAZOLINE-7-SULFONAMIDE] |  | 31.2% |  |
| O=S(=O)(Nc1ncns1)c1ccc2c(-c3ccc(Cl)cc3OC(F)F)cccc2c1 [Example 24] |  |  | IC50 [2, 4]: 30 nM |
| CN(C)C(=O)C1CN(c2cccc3cc(S(=O)(=O)Nc4ncns4)ccc23)CCO1 (stereo not shown) [Example 19] |  |  | IC50 [2, 4]: 1180 nM |
| CN1CC=C(c2cc(C(F)(F)F)ccc2-c2nccc3cc(S(=O)(=O)Nc4nccs4)ccc23)CC1 [Example 72, 1-(2-(1-METHYL-1,2,3,6-TETRAHYDROPYRIDIN-4-YL)-4-(TRIFLUOROMETHYL)PHENYL)-N-(THIAZOL-2-YL)ISOQUINOLINE-6-SULFONAMIDE] |  |  | IC50 [2, 4]: 60 nM |
| CN1CC=C(c2cc(C(F)(F)F)ccc2-c2nccc3cc(S(=O)(=O)Nc4ccncn4)ccc23)CC1 [Example 68, 1-(2-(1-METHYL-1,2,3,6-TETRAHYDROPYRIDIN-4-YL)-4-(TRIFLUOROMETHYL)PHENYL)-N-(PYRIMIDIN-4-YL)ISOQUINOLINE-6-SULFONAMIDE] |  |  | IC50 [2, 4]: 1520 nM |
| O=C1CCCN1c1cccc2cc(S(=O)(=O)Nc3ncns3)ccc12 [Example 93] | 7970 nM |  |  |
| O=S(=O)(Nc1nccs1)c1ccc2c(N3CCN(c4ccc(Cl)c(Cl)c4)CC3)nccc2c1 [Example 247, 1-(4-(3,4-DICHLOROPHENYL)PIPERAZIN-1-YL)-N-(THIAZOL-2-YL)ISOQUINOLINE-6-SULFONAMIDE] |  | 35% |  |
| O=S(=O)(Nc1ccncn1)c1ccc2c(-c3ccc(C(F)(F)F)cc3C3=CCNCC3)cccc2c1 [Example 48] |  |  | IC50 [2, 4]: 30 nM |
| O=S(=O)(Nc1ccncn1)c1ccc2c(-c3ccc(C(F)(F)F)cc3-c3ccncc3)nccc2c1 [Example 65, 1-(2-(PYRIDIN-4-YL)-4-(TRIFLUOROMETHYL)PHENYL)-N-(PYRIMIDIN-4-YL)ISOQUINOLINE-6-SULFONAMIDE] |  |  | IC50 [2, 4]: 320 nM |

The next lines start with results.

| IC50 [2, 3] | Nav1.7 Single Point Data IWQ (at […]) (%) [2] | Compound | also measured |
| --- | --- | --- | --- |
| 4120 nM |  | O=S(=O)(Nc1ccncn1)c1ccc2c(-c3cccc4ccsc34)nccc2c1 [Example 162, 1-(BENZO[B]THIOPHEN-7-YL)-N-(PYRIMIDIN-4-YL)ISOQUINOLINE-6-SULFONAMIDE] |  |
| > 10000 nM | 24% | Cn1cc(CCOc2nccc3cc(S(=O)(=O)Nc4ccncn4)ccc23)cn1 [Example 305, 1-(2-(1-METHYL-1H-PYRAZOL-4-YL)ETHOXY)-N-(PYRIMIDIN-4-YL)ISOQUINOLINE-6-SULFONAMIDE] |  |
| > 10000 nM | 39% | COc1nccc(NS(=O)(=O)c2ccc3c(-c4ccc(C(F)(F)F)cc4OC)nccc3c2)n1 [Example 313, 1-(2-METHOXY-4-(TRIFLUOROMETHYL)PHENYL)-N-(2-METHOXYPYRIMIDIN-4-YL)ISOQUINOLINE-6-SULFONAMIDE] |  |
| > 10000 nM | 46% | O=S(=O)(Nc1ccncn1)c1ccc2c(-c3cccc4cccnc34)nccc2c1 [Example 310, N-(PYRIMIDIN-4-YL)-1-(QUINOLIN-8-YL)ISOQUINOLINE-6-SULFONAMIDE] |  |
| > 10000 nM | 25% | Cc1cccc(CCCOc2nccc3cc(S(=O)(=O)Nc4ccncn4)ccc23)n1 [Example 300, 1-(3-(6-METHYLPYRIDIN-2-YL)PROPOXY)-N-(PYRIMIDIN-4-YL)ISOQUINOLINE-6-SULFONAMIDE] |  |
|  | 34.6% | O=S(=O)(Nc1ccncn1)c1ccc2c(-c3ccc(N4CCCCC4)c(F)c3F)nccc2c1 [Example 432, 1-(2,3-DIFLUORO-4-(PIPERIDIN-1-YL)PHENYL)-N-(PYRIMIDIN-4-YL)ISOQUINOLINE-6-SULFONAMIDE] |  |
| 4980 nM |  | O=S(=O)(Nc1ccncn1)c1ccc2c(Oc3ccc(Cl)c(Cl)c3)nccc2c1 [Example 193, 1-(3,4-DICHLOROPHENOXY)-N-(PYRIMIDIN-4-YL)ISOQUINOLINE-6-SULFONAMIDE] |  |
|  | 20.6% | Cc1cnc(OC[C@@H]2CCOC2)c(-c2nccc3cc(S(=O)(=O)Nc4nccs4)ccc23)c1 [Example 387, (R)-1-(5-METHYL-2-((TETRAHYDROFURAN-3-YL)METHOXY)PYRIDIN-3-YL)-N-(THIAZOL-2-YL)ISOQUINOLINE-6-SULFONAMIDE] |  |
| > 10000 nM | 40% | O=S(=O)(Nc1ccncn1)c1ccc2c(OCc3ccc(-n4ccnc4)cc3)nccc2c1 [Example 301, 1-((4-(1H-IMIDAZOL-1-YL)BENZYL)OXY)-N-(PYRIMIDIN-4-YL)ISOQUINOLINE-6-SULFONAMIDE] |  |
| 6390 nM |  | COc1c(F)cccc1-c1nccc2cc(S(=O)(=O)Nc3ccncn3)ccc12 [Example 157, 1-(3-FLUORO-2-METHOXYPHENYL)-N-(PYRIMIDIN-4-YL)ISOQUINOLINE-6-SULFONAMIDE] |  |
|  | 20.3% | O=S(=O)(Nc1ncns1)c1ccc2c(N3CCCC3c3ccncc3)ncnc2c1 (stereo not shown) [Example 539, 4-(2-(PYRIDIN-4-YL)PYRROLIDIN-1-YL)-N-(1,2,4-THIADIAZOL-5-YL)QUINAZOLINE-7-SULFONAMIDE] |  |
|  | 33.5% | CC1CN(c2cccc(F)c2)CCN1c1nccc2cc(S(=O)(=O)Nc3ccncn3)ccc12 (stereo not shown) [Example 403, 1-(4-(3-FLUOROPHENYL)-2-METHYLPIPERAZIN-1-YL)-N-(PYRIMIDIN-4-YL)ISOQUINOLINE-6-SULFONAMIDE] |  |
| > 10000 nM | 32% | O=S(=O)(Nc1ccncn1)c1ccc2c(OCc3ccc(N4CCOCC4)cc3)nccc2c1 [Example 304, 1-((4-MORPHOLINOBENZYL)OXY)-N-(PYRIMIDIN-4-YL)ISOQUINOLINE-6-SULFONAMIDE] |  |
| 5170 nM |  | COc1cnccc1-c1nccc2cc(S(=O)(=O)Nc3ccncn3)ccc12 [Example 169, 1-(3-METHOXYPYRIDIN-4-YL)-N-(PYRIMIDIN-4-YL)ISOQUINOLINE-6-SULFONAMIDE] |  |
| 6730 nM |  | COc1ncccc1-c1nccc2cc(S(=O)(=O)Nc3ccncn3)ccc12 [Example 144, 1-(2-METHOXYPYRIDIN-3-YL)-N-(PYRIMIDIN-4-YL)ISOQUINOLINE-6-SULFONAMIDE] |  |
| 2340 nM and 370 nM |  | COc1cc(C(F)(F)F)ccc1-c1nccc2cc(S(=O)(=O)Nc3cnccn3)ccc12 [Example 186, 1-(2-METHOXY-4-(TRIFLUOROMETHYL)PHENYL)-N-(PYRAZIN-2-YL)ISOQUINOLINE-6-SULFONAMIDE] |  |
|  | 24.7% | COc1cc(C(F)(F)F)ccc1-c1nccc2cc(S(=O)(=O)Nc3cc(C(F)(F)F)ncn3)ccc12 [Example 496, 1-(2-METHOXY-4-(TRIFLUOROMETHYL)PHENYL)-N-(6-(TRIFLUOROMETHYL)PYRIMIDIN-4-YL)ISOQUINOLINE-6-SULFONAMIDE] |  |
| 6810 nM |  | COc1c(-c2nccc3cc(S(=O)(=O)Nc4ccncn4)ccc23)cccc1C(F)(F)F [Example 152, 1-(2-METHOXY-3-(TRIFLUOROMETHYL)PHENYL)-N-(PYRIMIDIN-4-YL)ISOQUINOLINE-6-SULFONAMIDE] |  |
| > 10000 nM | 23% | O=S(=O)(Nc1ccncn1)c1ccc2c(OCCn3ccnn3)nccc2c1 [Example 296, 1-(2-(1H-1,2,3-TRIAZOL-1-YL)ETHOXY)-N-(PYRIMIDIN-4-YL)ISOQUINOLINE-6-SULFONAMIDE] |  |
